We go through 25 molecules from patent publication US20230065799A1, “METHOD FOR ATTRIBUTING OLFACTORY TONALITIES TO OLFACTORY RECEPTOR ACTIVATION AND METHODS FOR IDENTIFYING COMPOUNDS HAVING THE ATTRIBUTED TONALITIES” (FIRMENICH SA, priority 2019, published 2023).

One experiment deals with T1, OR11A1 (Homo sapiens, UniProt Q9GZK7).
T1 construct: FLAG (N); Rho (first 20 aa of bovine rhodopsin) (N); expressed in transfected cells
T1 sequence (Q9GZK7 1-315): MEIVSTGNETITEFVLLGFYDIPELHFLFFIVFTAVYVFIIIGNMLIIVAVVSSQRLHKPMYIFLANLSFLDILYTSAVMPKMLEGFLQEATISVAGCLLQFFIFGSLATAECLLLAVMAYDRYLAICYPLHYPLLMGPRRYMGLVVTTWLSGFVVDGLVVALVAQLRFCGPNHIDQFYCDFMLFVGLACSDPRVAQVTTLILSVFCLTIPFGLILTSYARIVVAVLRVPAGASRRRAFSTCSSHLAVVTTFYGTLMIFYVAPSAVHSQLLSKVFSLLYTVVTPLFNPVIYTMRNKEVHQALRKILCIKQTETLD
The experiment can be described thus: OR11A1 cell-based cAMP HTRF assay in HEK293T cells. The following applies: for Emax: HEK-293T, read-out: OR11A1 % Efficacy; for Emax / OR11A1 % Efficacy: dose-response, 100% = full agonist. The procedure:
The molecular receptive range of the human odorant receptor OR11A1 (SEQ ID NO. 11) was tested by performing a large scale screening with a chemically and organoleptically diverse volatile compound library comprising approximately 800 compounds. Using a cell-based assay, OR11A1 was tested in an HEK293T cell line wherein the endogenous RTP1 gene has been activated and the odorant receptor chaperone was expressed (WO2016/201153 A1). Cells were co-transfected with the Flag-Rho-tagged receptor and the canonical olfactory G-protein Golf, and exposed to a single concentration of each test compound, tested individually. Receptor activity was detected by measuring the cAMP increase in the cytosol using an HTRF (Homogenous Time-Resolved Fluorescence unit) based kit (CisBio, cAMP dynamic 2 kit, 62AM4PEJ).
First, 300 mM stock solutions for 798 test compounds were made in pure DMSO. The stock solutions for each compound were further diluted to a final test concentration of 300 μM. The final concentration of DMSO was 0.1%, and had no visible effect on the cells. Each compound was presented to a cell line expressing the OR11A1 olfactory receptor. The quality of this high-throughput screening (HTS) process was determined and the window variability and signal reliability were assessed by calculating the Z′ value of each plate (the average Z′ value per plate was 0.72±0.12, well within the required quality standards between 0.5 and 1). The result of this single concentration activation screen is shown in FIG. 3, where hits are highlighted in light grey dots.
In a subsequent step using the same cell-based assay described above, the candidate hits were confirmed to be true agonists (activators) by performing dose-response experiments as shown in FIG. 4 for a subset of the best hits. […] Both sensitivity (potency) and activation strength (efficacy) were calculated from the curves, as a measure of EC50 (the concentration required to reach half-maximal activation level) and Span (the assay window span between baseline activity level and activation saturation plateau), respectively. These values were used to represent the molecular receptive range of OR11A1 according to the potency (X axis) and efficacy (Y axis) in FIG. 5. A partial agonist, Tonalide, is also listed. The […] agonists cover distinct perfumery tonalities: woody (Patchouli Alcohol), musky (Vulcanolide, Tonalide), and camphorous (Fenchyl Alcohol), Table 2. Taken together, the data depict the diversity of both the organoleptic tonalities and chemical structures of compounds capable of activating OR11A1, congruent with results described in WO2016/201152 A1 (musk) and EP2832347A1.(patchouli). The OR11A1 activity however was not associated with the tonalities of musk (WO2016/201152 A1) or patchouli (EP2832347A1) specifically but rather the earthy facet thereof. In fact, the single commonality between these compounds was the earthy tonality, which is semantically captured by the following descriptors: earthy, humus and earthy-moss. These compounds are neither all musks nor patchouli but they all are earthy.
Background: In TR-FRET formats the signal depends on donor and acceptor labels being close together.

Another experiment addresses T2, OR8B3 (Homo sapiens, UniProt Q8NGG8).
T2 construct: Lucy (cleavable signal peptide) (N); FLAG (N); Rho (first 20 aa of bovine rhodopsin) (N); expressed in transfected cells
T2 sequence (Q8NGG8 1-313): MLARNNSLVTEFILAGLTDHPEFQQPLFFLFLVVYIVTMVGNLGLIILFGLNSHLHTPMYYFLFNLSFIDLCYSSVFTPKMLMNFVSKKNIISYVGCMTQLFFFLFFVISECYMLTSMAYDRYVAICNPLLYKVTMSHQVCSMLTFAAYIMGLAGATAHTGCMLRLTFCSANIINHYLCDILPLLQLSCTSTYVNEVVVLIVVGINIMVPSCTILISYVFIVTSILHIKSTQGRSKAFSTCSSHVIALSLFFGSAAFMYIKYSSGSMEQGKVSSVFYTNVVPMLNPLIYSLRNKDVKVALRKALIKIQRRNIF
The experiment can be described thus: OR8B3 cell-based cAMP HTRF assay. Conditions: dose-response, 100% = full agonist; for Emax: read-out: OR8B3 % Efficacy.

For the next experiment, the target named is T3, OR5AU1 (Homo sapiens, UniProt Q8NGC0).
T3 construct: Lucy (cleavable signal peptide) (N); FLAG (N); Rho (first 20 aa of bovine rhodopsin) (N); expressed in transfected cells
T3 sequence (Q8NGC0 52-362): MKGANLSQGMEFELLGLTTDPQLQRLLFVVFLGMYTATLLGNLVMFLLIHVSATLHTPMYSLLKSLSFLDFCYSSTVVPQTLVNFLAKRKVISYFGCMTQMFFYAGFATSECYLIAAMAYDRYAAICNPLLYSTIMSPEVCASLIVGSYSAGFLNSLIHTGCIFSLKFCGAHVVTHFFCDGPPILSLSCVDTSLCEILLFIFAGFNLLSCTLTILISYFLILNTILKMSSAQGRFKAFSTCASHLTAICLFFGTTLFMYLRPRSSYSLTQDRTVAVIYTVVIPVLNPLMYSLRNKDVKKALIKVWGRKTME
The experiment can be described thus: OR5AU1 cell-based cAMP HTRF assay. Conditions: for Emax: read-out: OR5AU1 % Efficacy; for Active OR/Linked Tonality: OR5AU1 (Lactonic Coconut): receptor listed = activated by the compound.

The next experiment deals with T4, OR7A17 (Homo sapiens, UniProt O14581).
T4 construct: Lucy (cleavable signal peptide) (N); FLAG (N); Rho (first 20 aa of bovine rhodopsin) (N); expressed in transfected cells
T4 sequence (O14581 1-309): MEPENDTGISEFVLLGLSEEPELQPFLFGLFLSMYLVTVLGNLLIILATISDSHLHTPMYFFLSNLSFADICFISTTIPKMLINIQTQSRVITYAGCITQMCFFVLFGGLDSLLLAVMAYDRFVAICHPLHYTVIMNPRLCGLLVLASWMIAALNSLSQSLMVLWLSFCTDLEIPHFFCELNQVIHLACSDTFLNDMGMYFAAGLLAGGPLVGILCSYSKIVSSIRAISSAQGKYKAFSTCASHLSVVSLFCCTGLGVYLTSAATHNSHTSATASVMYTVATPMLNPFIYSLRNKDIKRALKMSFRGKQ
The experiment can be described thus: OR7A17 cell-based cAMP HTRF assay. Conditions: dose-response, 100% = full agonist.

Another experiment addresses T5, OR5A1 (Homo sapiens, UniProt Q8NGJ0).
T5 construct: Lucy (cleavable signal peptide) (N); FLAG (N); Rho (first 20 aa of bovine rhodopsin) (N); expressed in transfected cells
T5 sequence (Q8NGJ0 1-315): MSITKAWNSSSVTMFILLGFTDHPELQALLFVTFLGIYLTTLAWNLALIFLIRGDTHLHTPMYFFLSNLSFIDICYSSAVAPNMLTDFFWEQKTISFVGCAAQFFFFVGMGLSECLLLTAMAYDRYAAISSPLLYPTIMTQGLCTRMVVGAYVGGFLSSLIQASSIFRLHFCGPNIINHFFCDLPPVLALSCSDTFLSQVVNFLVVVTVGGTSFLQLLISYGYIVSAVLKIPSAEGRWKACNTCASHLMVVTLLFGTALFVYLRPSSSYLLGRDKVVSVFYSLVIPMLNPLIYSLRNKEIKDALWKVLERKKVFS
The experiment can be described thus: OR5A1 cell-based cAMP HTRF assay. Conditions: dose-response; 100% = full agonist; read-out: OR5A1 % Efficacy.

The mark [1] stands for this setting: dose-response, 100% = full agonist.

Consider `CC(=O)c1cc2c(cc1C)C(C)(C)C(C)CC2(C)C` (stereo not drawn) [Tonalide, 1-(3,5,5,6,8,8-hexamethyl-6,7-dihydronaphthalen-2-yl)ethanone], for which, on OR11A1, the “OR11A1 agonism in dose-response experiments” value was “weak (partial) agonist” and the Emax came to 21%. Take `CC1(C)[C@H]2C[C@H]3CCC(=O)C=C3[C@@H]1C2` [Tricyclone, (1~{R},7~{R},9~{S})-10,10-dimethyltricyclo[7.1.1.0^{2,7}]undec-2-en-4-one]: at OR8B3, the “OR8B3 % Efficacy” value was determined as 77%. `CCCCCC1CCCC1=O` (stereo not drawn) [Delphone, 2-pentylcyclopentan-1-one]: the Emax on OR5AU1 (setting [1]) is 80%. In the case of `Cc1cc2c(cc1C=O)C(C)(C)[C@H](C)[C@@H](C)C2(C)C` [Vulcanolide, (6~{R},7~{R})-3,5,5,6,7,8,8-heptamethyl-6,7-dihydronaphthalene-2-carbaldehyde], the “OR11A1 % Efficacy” value at OR11A1 amounted to 89%. Regarding `CCCCC1CCC(=O)O1` (stereo not drawn) [Gamma Octalactone, 5-butyloxolan-2-one], on OR8B3, the Emax was determined as 100%. Moreover, the “Active OR/Linked Tonality: OR5AU1 (Lactonic Coconut)” value (“Active OR/Linked Tonality: OR5AU1” below) at OR5AU1 is listed as “OR5AU1/”. As to “9-ethylidene-3-oxatricyclo[6.2.1.0^{2,7}]undecan-4-one; 10-ethylidene-3-oxatricyclo[6.2.1.0^{2,7}]undecan-4-one [Florex]”, the “OR8B3 % Efficacy” value at OR8B3 is reported as 74%. Turning to `CCCCC1OC(=O)CC1C` (stereo not drawn) [Whiskey Lactone K, 5-butyl-4-methyloxolan-2-one], the Emax at OR8B3 was determined as 88%. In addition, at OR5AU1, the “Active OR/Linked Tonality: OR5AU1” value was “OR5AU1/”. On to `O=c1ccc2ccccc2o1` [Coumarin, chromen-2-one], for which, on OR8B3, the Emax is 95%. For the molecule `CCCCCCC1CCC(=O)O1` (stereo not drawn) [Gamma Decalactone, 5-hexyloxolan-2-one], the “Active OR/Linked Tonality: OR5AU1” value on OR5AU1 is on record as “OR5AU1/”.

Consider `CCCCC1CCCC(=O)O1` (stereo not drawn) [Nonalactone Delta, 6-butyloxan-2-one], for which the Emax at OR8B3 came out at 97%. On OR5AU1, the “Active OR/Linked Tonality: OR5AU1” value was “OR5AU1/”. As for `CCCC1CCCC(=O)O1` (stereo not drawn) [Octalactone Delta, 6-propyloxan-2-one], the “Active OR/Linked Tonality: OR5AU1” value at OR5AU1 is reported as “OR5AU1/”. Turning to “1-(2,3,8,8-tetramethyl-1,3,4,6,7,8~{a}-hexahydronaphthalen-2-yl)ethanone; 1-(2,3,8,8-tetramethyl-1,3,5,6,7,8~{a}-hexahydronaphthalen-2-yl)ethanone; 1-(2,3,8,8-tetramethyl-1,3,4,5,6,7-hexahydronaphthalen-2-yl)ethanone [Derambrene]”, at OR7A17, the “OR7A17 % Efficacy” value worked out at 83%. For `CCCCC[C@H]1OC(=O)C[C@H]1C` [Tuberolide Ht, (4~{R},5~{R})-4-methyl-5-pentyloxolan-2-one], on OR5AU1 (setting [1]), the “OR5AU1 % Efficacy” value is 100%.

For the molecule `CC12CCC(C1)C(C)(C)C2O` (stereo not drawn) [Fenchyl Alcohol, (1~{R},2~{R},4~{S})-1,3,3-trimethylbicyclo[2.2.1]heptan-2-ol], the Emax on OR11A1 came to 86%. As to `CCCCCC1CCCC(=O)O1` (stereo not drawn) [Delta decalactone, 6-pentyloxan-2-one], at OR5AU1 (setting [1]), the Emax stood at 88%.

`CC(=O)C=CC1=C(C)CCC(C)C1(C)C` (stereo not drawn) [Irone beta, 4-(2,5,6,6-tetramethylcyclohexen-1-yl)but-3-en-2-one]: on OR5A1, the Emax was found to be 91%.

On to `C[C@@H]1[C@@H]2C[C@H](C[C@]13C=CC(=O)CC3)C2(C)C` [Wolfwood, (1~{S},2~{R},3~{R},5~{R})-2,6,6-trimethylspiro[bicyclo[3.1.1]heptane-3,4′-cyclohex-2-ene]-1′-one], for which, at OR7A17, the “OR7A17 % Efficacy” value amounted to 100%. On the same count and under the same terms, with `CC1(C)CCC[C@]2(C)CC(=O)CC[C@@H]12` [Z-95, (4~{a}~{S},8~{a}~{R})-5,5,8~{a}-trimethyl-3,4,4~{a},6,7,8-hexahydro-1~{H}-naphthalen-2-one] the figure was 82%.

Consider `C[C@@H]1CC[C@]2(O)C(C)(C)[C@H]3CC[C@@]2(C)[C@@H]1C3` [Patchouli Alcohol, (1~{S},3~{S},6~{R},7~{R},8~{S})-2,2,6,8-tetramethyltricyclo[5.3.1,0^{3,8}]undecan-3-ol], for which the “OR11A1 % Efficacy” value at OR11A1 worked out at 83%. As to `CC=CCCC1CCCC(=O)O1` (stereo not drawn) [Delta Jasmolactone, 6-pent-3-enyloxan-2-one], at OR5AU1 (setting [1]), the Emax is 92%. The “Active OR/Linked Tonality: OR5AU1” value on OR5AU1 is on record as “OR5AU1/”.

Take “1-(4,8-dimethyl-12-methylidenecyclododeca-4,8-dien-1-yl)ethanone; 1-(2,6,10-trimethylcyclododeca-1,5,9-trien-1-yl)ethanone; 1-(2,6,10-trimethylcyclododeca-2,5,9-trien-1-yl)ethanone [Trimofix]”: the “OR7A17 % Efficacy” value on OR7A17 came out at 74%. On to `CC1CCCC2(C)CCCCC12O` (stereo not drawn) [Geosmin, (4~{S},8~{a}~{R})-4,8~{a}-dimethyl-1,2,3,4,5,6,7,8-octahydronaphthalen-4~{a}-ol], for which the Emax on OR11A1 amounted to 100%. For `O=C1CCC2CCCCC2O1` (stereo not drawn) [Octahydrocoumarine, 3,4,4~{a},5,6,7,8,8~{a}-octahydrochromen-2-one], the “OR8B3 % Efficacy” value at OR8B3 is recorded as 95%. Turning to `CC1(C)CCCC(C)(C)C1=O` [2,2,6,6-tetramethyl-1-cyclohexanone], the “OR11A1 agonism in dose-response experiments” value at OR11A1 is listed as “did not yield any significant dose-response”.

As to `CC(=O)/C(C)=C/C1C(C)=CCCC1(C)C` (racemic) [Methyl ionone gamma, (+−)-(e)-3-methyl-4-(2,6,6-trimethyl-2-cyclohexen-1-yl)-3-buten-2-one], the Emax at OR7A17 (read-out: OR7A17 % Efficacy) was found to be 65%.
